Here are results for 79 molecules from the METLIN SMRT retention time set (Domingo-Almenara et al. 2019).

Each structure is given as a SMILES string.

The nature of the data set: gradient 5% acetonitrile 3 min, to 50% in 2 min, to 85% in 15 min, held 3 min, 100 µL/min. As to conditions: column: Zorbax Extend-C18 2.1 x 50 mm; eluents: water / acetonitrile, 0.1% formic acid. The method in brief: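 A Zorbax Extend-C18 column (2.1 × 50 mm, 1.8 μm) run at 100 μL/min with water and acetonitrile, both containing 0.1% formic acid, separated mixtures of ~100 pure standards. The HPLC was coupled to a quadrupole time-of-flight mass spectrometer operated in positive and negative ionization mode, with dead and dwell volumes of 40 μL and 900 μL. Each retention time was taken from a computationally picked adduct peak that was then manually inspected.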
As for `CCc1cccc(C)c1NC(=O)Cn1c(=O)c(CCC(=O)NC2CCCC2)nc2ccccc21`, the RP-LC retention time came to 844 s.

Molecule `CCOC(=O)C(=O)Nc1ccc(OC)c(OC)c1` gave an RP-LC retention time of 650 s.

On to `N#Cc1cc(NC(=O)Cc2nnc(-c3ccc4ncccc4c3)o2)ccc1F`, for which the RP-LC retention time is 720 s.

The molecule `Cc1noc(CNS(=O)(=O)c2ccc(OC(F)(F)F)cc2)n1` yielded an RP-LC retention time of 818 s.

Molecule `O=C(NCC1(CO)CC1)c1ccc2nsnc2c1` yielded an RP-LC retention time of 602 s.

In turn, `Cc1cccc(-c2ncccc2CNS(=O)(=O)c2ccc(F)cc2)c1` registered an RP-LC retention time of 724 s.

For `CCn1c(C(=O)NCCC(C)C)cc2c(=O)oc3ccccc3c21`, the RP-LC retention time is 751 s.

Consider `COc1ccc(OC)c(CNC(=O)C2(CCO)CCN(c3ncccn3)C2)c1` (centres undefined), for which the RP-LC retention time came out at 618 s.

Turning to `Cc1c(S(=O)(=O)N2CCC(C(=O)NCc3csc(-c4ccccc4)n3)CC2)cnn1C(F)F`, the RP-LC retention time worked out at 868 s.

Molecule `Cc1ccc(-c2csc(NC(=O)Cc3csc(-c4ccccc4)n3)n2)cc1` had an RP-LC retention time of 1210 s.

The molecule `Cc1oc(-c2ccc(NC(=O)c3ccc(N(C)C)cc3)cc2)nc1Cn1cccn1` returned an RP-LC retention time of 875 s.

`Cc1cc(C)n(-c2ccnc(N3CCC(C(=O)N4CCN(c5ccccc5)CC4)CC3)n2)n1`: the RP-LC retention time was 907 s.

Consider `CCOC(=O)c1c(S(=O)(=O)N2CCC(C(=O)Nc3nc(C)cs3)CC2)c(C)n(C)c1C`, for which the RP-LC retention time came to 780 s.

Consider `CC(C)CC(=O)N1CC(c2nc(-c3cccnc3)no2)C2(CCOCC2)C1` (centres undefined), for which the RP-LC retention time was found to be 706 s.

As to `CC(C)c1nnc(-c2ccc(S(=O)(=O)N3CCN(C4CCCCC4)CC3)o2)o1`, the RP-LC retention time was determined as 644 s.

Molecule `CCCN(CC1CCOC1)C(=O)c1cc(Cl)ccc1F` (centres undefined) gave an RP-LC retention time of 844 s.

Molecule `COc1ccccc1C(=O)N1CCC2(CC1)c1nccn1-c1ccccc1CN2CC(C)C` had an RP-LC retention time of 692 s.

On to `O=C(NCc1cc(F)cc(F)c1)C1CC(=O)N(c2ccc3c(c2)CCN3C(=O)C2CC2)C1` (centres undefined), for which the RP-LC retention time was 767 s.

Molecule `COc1cc2c(cc1Oc1ccc(OC)c3c1CC1c4c(cc(OC)c(OC)c4-3)CCN1C)CC1c3c(cc(OC)c(OC)c3-2)CCN1C` (centres undefined) yielded an RP-LC retention time of 616 s.

Regarding `C=CCNC(=O)Cc1nnc2cc(-c3nc(C4CC4)no3)ccn12`, the RP-LC retention time was 662 s.

The molecule `COc1ccccc1NC(=O)N1CCCC(C)(C(=O)NCc2ccccc2C)C1` (centres undefined) showed an RP-LC retention time of 859 s.

As to `CCOC(=O)CNC(=O)C1CC(=O)N(CCc2c[nH]c3ccc(F)cc23)C1` (centres undefined), the RP-LC retention time came to 962 s.

In turn, `CCC(CC)C(=O)N1CCN(c2ccc(=O)n(-c3ccc(Cl)cc3)n2)CC1` displayed an RP-LC retention time of 887 s.

Turning to `Cc1ccc(-c2cc3c(=O)n(Cc4noc(CN5CCSCC5)n4)ccn3n2)c(C)c1`, the RP-LC retention time was 962 s.

In turn, `COc1cccc(NC(=O)C2CCN(S(=O)(=O)c3cc(-c4noc(C5CC5)n4)cs3)CC2)c1` yielded an RP-LC retention time of 1000 s.

On to `NC(=O)CNC(=O)c1sc2ncccc2c1-n1cccc1`, for which the RP-LC retention time is 622 s.

Turning to `COc1cccc(S(=O)(=O)N2CCCN(C3CCN(Cc4ccccc4)C3=O)CC2)c1` (centres undefined), the RP-LC retention time came to 671 s.

For `O=C(CCc1nc(CSc2nc3ccccc3s2)no1)Nc1nc(-c2ccccc2)cs1`, the RP-LC retention time turned out to be 1090 s.

As for `Cc1ccc(CNC(=O)N2CCC(n3c(-c4ccco4)nc4cccnc43)C2)cc1` (centres undefined), the RP-LC retention time stood at 762 s.

Regarding `CCc1ccccc1NC(=O)N1CCC(c2nc(C(=O)N3CCCC3)c(C)o2)CC1`, the RP-LC retention time came to 782 s.

In the case of `O=C(C1CCCN(c2nn3c(=O)c4c(nc3s2)CCCC4)C1)N1CCN(c2ccccc2F)CC1` (centres undefined), the RP-LC retention time turned out to be 868 s.

In the case of `Cc1cc2nn(CC(=O)Nc3ccccc3)c(=O)n2c(N2CCCC2)n1`, the RP-LC retention time was 703 s.

Turning to `O=C(C1CCN(c2cnc3nccnc3c2)CC1)N1CCN(c2ccc(F)cc2)CC1`, the RP-LC retention time is 723 s.

For `O=S(=O)(Nc1cnn(-c2ncc(N3CCCC3)cn2)c1)c1ccc2c(c1)CCCC2`, the RP-LC retention time amounted to 983 s.

`CCNC(=O)C1CCCN(c2nc3ncn(CC(=O)Nc4ccccc4Cl)c(=O)c3s2)C1` (centres undefined) displayed an RP-LC retention time of 664 s.

`COCCn1cc(CCNC(=O)Nc2ccccc2C)c2cccnc21` came in with an RP-LC retention time of 694 s.

`CCC(=O)NCc1nc2c(n1C)CN(S(=O)(=O)c1ccc(CC)cc1)CC2` had an RP-LC retention time of 581 s.

Take `Cc1noc(C)c1CN1CCN(C(=O)CSc2ccc(F)cc2)CC1`: the RP-LC retention time was 570 s.

Molecule `O=C(c1ccc2ccnc(N3CCN(c4ccc(F)cc4)CC3)c2c1)N1CCCCCC1` came in with an RP-LC retention time of 816 s.

`O=C(NC1CCCCC1)C1CC(=O)N(CCc2c[nH]c3ccc(Cl)cc23)C1` (centres undefined) yielded an RP-LC retention time of 817 s.

Consider `Cc1cc2[nH]c(C(=O)Nc3ccc(F)c(F)c3F)c(CN(C)C)c2s1`, for which the RP-LC retention time came to 688 s.

`CC(C)CNC(=O)N(C)Cc1nc2cc(C(=O)NC(C)C)ccc2n1C` registered an RP-LC retention time of 593 s.

In turn, `CCCCCn1c(=O)c2ccccc2n(Cc2nc(-c3ccccc3)no2)c1=O` yielded an RP-LC retention time of 1240 s.

Regarding `COc1ccccc1NCC(O)Cn1ccc2ccccc21` (centres undefined), the RP-LC retention time came out at 871 s.

For `O=C(Nc1ccccc1Br)N1CCCC1c1nc(-c2ccc(F)cc2F)no1` (centres undefined), the RP-LC retention time is 1070 s.

Consider `Cn1c(=O)c2c(nc(OCCc3ccccc3)n2C)n(C)c1=O`, for which the RP-LC retention time was 909 s.

On to `Cc1cc(C)cc(C(=O)NCc2ccc3c(c2)ncn3C)c1`, for which the RP-LC retention time was 615 s.

`CCOC(=O)c1ccc(NS(=O)(=O)c2cc3n(c2)CCCNC3=O)cc1` had an RP-LC retention time of 1010 s.

Molecule `CC(C)n1cnc(S(=O)(=O)N2CCC(C(=O)Nc3cccc(C(F)(F)F)c3)CC2)c1` returned an RP-LC retention time of 862 s.

`COc1ccc([N+](=O)[O-])cc1NC(=O)Cc1cccc2ccccc12` displayed an RP-LC retention time of 967 s.

Molecule `COc1cc(CNS(=O)(=O)c2cn(C(C)C)c3ncccc23)cc(OC)c1` returned an RP-LC retention time of 859 s.

The molecule `CN(C)C(CNC(=O)c1cc(-c2cccs2)on1)c1ccc(F)cc1` (centres undefined) yielded an RP-LC retention time of 668 s.

`COc1ccccc1-c1noc(C2CCCN2C(=O)Nc2ccc(F)cc2)n1` (centres undefined) displayed an RP-LC retention time of 842 s.

The molecule `COc1ccc(S(=O)(=O)N2CCC(C(=O)NCCc3csc(-c4ccccc4)n3)CC2)cc1` had an RP-LC retention time of 912 s.

Molecule `CCOCC(=O)Nc1ccc(CC(=O)NCC(F)(F)F)cc1` had an RP-LC retention time of 644 s.

Take `COc1ccc(CCC(=O)N2CCC3(C2)C(=O)N(C)c2ccc(OC)cc23)cc1` (centres undefined): the RP-LC retention time was found to be 800 s.

`Cc1cccc(-c2noc(-c3ccc(N4CCN(c5ccccc5F)CC4)nc3)n2)c1` had an RP-LC retention time of 613 s.

In turn, `Cc1ccc(Sc2cncc3sc(C(N)=O)cc23)cc1` displayed an RP-LC retention time of 836 s.

In turn, `Clc1ccc(Sc2c(-c3ccccc3)nc3ncccn23)cc1` yielded an RP-LC retention time of 1030 s.

The molecule `COc1ccc(-c2nnc(-c3cccnc3N3CCC4(CC3)OCCO4)o2)cc1` showed an RP-LC retention time of 875 s.

In turn, `COc1cc(-c2nc3ncccn3c2Nc2ccc(C(C)C)cc2)ccc1O` registered an RP-LC retention time of 711 s.

On to `CCn1nccc1C(=O)NCCn1c(C)cnc1C1CCC1`, for which the RP-LC retention time turned out to be 574 s.

`COc1cccc(-n2ccc(=O)c(-c3nc(-c4ccccc4F)no3)n2)c1` yielded an RP-LC retention time of 869 s.

Molecule `COc1ccc(-c2noc(-c3ccc(N4CCN(c5ccccc5OC)CC4)nc3)n2)cc1` came in with an RP-LC retention time of 1310 s.

Consider `Cc1ccc(C)c(Cn2nc3ccc(S(=O)(=O)N4CCC(C)CC4)cn3c2=O)c1`, for which the RP-LC retention time was determined as 1130 s.

In the case of `O=C(Nc1cccc(OCc2nnc(-c3ccc(Cl)cc3)o2)c1)c1ccsc1`, the RP-LC retention time turned out to be 1010 s.

`Cc1nc2ccccn2c(=O)c1NC(=O)Nc1cccs1` had an RP-LC retention time of 566 s.

`COc1ccc2c(c1)C=C(C(=O)NCCc1c[nH]c3ccc(OC)cc13)CO2` had an RP-LC retention time of 800 s.

Molecule `O=C(Nc1cnc(N2CCCCC2)nc1)c1ccsc1` yielded an RP-LC retention time of 800 s.

In the case of `COC(=O)c1ccc(NC(=O)N2CCC(CCOc3ccc(F)cc3)C2)cc1` (centres undefined), the RP-LC retention time is 981 s.

For `C=CCN1CCN(C(=O)C2=NN(c3ccc(Cl)cc3)c3ncccc3S2(=O)=O)CC1`, the RP-LC retention time came out at 660 s.

As to `Cc1ccc(CNC(=O)Cn2nc(N3CCCCCC3)c3ccccc3c2=O)cc1`, the RP-LC retention time turned out to be 1100 s.

For the molecule `O=C(c1cccn2c(=O)c3c4c(sc3nc12)CCCC4)N1CCN(c2ccccn2)CC1`, the RP-LC retention time was 656 s.

Consider `Cc1ccccc1-c1nnc(COc2ccc(NC(=O)Cc3cccs3)cc2)o1`, for which the RP-LC retention time was determined as 976 s.

`Cn1cnc2c1CN(C(=O)c1ccc(Br)o1)CC2` gave an RP-LC retention time of 563 s.

In turn, `Cc1cc(C(=O)Nc2ccc(Cl)cc2)n(CC(=O)Nc2ccc(F)cc2)n1` registered an RP-LC retention time of 946 s.

`CCn1cc(-c2nc(C(=O)Nc3cc(F)ccc3F)cs2)c2cccnc21` returned an RP-LC retention time of 1220 s.

As for `O=S(=O)(NCC(O)C1CCCCC1)c1cccc2ccccc12` (centres undefined), the RP-LC retention time came to 902 s.

In turn, `Cc1nnc(N2CCC(C(=O)N3CCC(C(N)=O)CC3)CC2)c2nn(-c3ccccc3)c(C)c12` displayed an RP-LC retention time of 599 s.
